# Reference: patent publication US12065429B2, “Small molecule modulators of IL-17” (LEO Pharma A/S, priority 2022, dated 2024)
# Columns and labels:
# [1] = Human liver microsome (HLM) clearance assay; type: in vitro ADME; conditions: human liver microsomes 0.5 mg/mL, NADPH 1 mM, 0.5 μM compound, 40 min
# Experimental: Example 63: Human Liver Microsome (HLM) Clearance Assay
# Samples were taken out before addition of NADPH, and at 5, 10, 20 and 40 minutes thereafter and protein precipitation using cold acetonitrile with added internal standard was performed prior to centrifugation and sample analysis using compound specific LCMS/MS methods. Control incubations in buffer and without NADPH were performed in the same manner. Compound depletion was determined and apparent clearance (CLapp) was calculated.
# [2] = Solubility assay; type: physicochemical; conditions: aqueous buffer, kinetic from dmso stock; 0.067 M phosphate buffer pH 6.5, 24 hours shaking, from 10 mM DMSO stock
# Experimental: After centrifugation, the supernatant was analyzed by HPLC-UV. The solubility was defined as the concentration of the test substance in the selected solvent. It was determined by correlation with an external standard calibration curve.
Structure (SMILES),HLM Clapp [1],solubility at 24 h [2]
"Cc1cc[n+]([O-])c(C)c1-c1ccc(NC(=O)[C@@H](NC(=O)c2ccnn2C(C)C)C(C2CC2)C2CC2)nc1F [Example 4, N-[(1S)-1-(dicyclopropylmethyl)-2-[[5-(2,4-dimethyl-1-oxido-pyridin-1-ium-3-yl)-6-fluoro-2-pyridyl]amino]-2-oxo-ethyl]-2-isopropyl-pyrazole-3-carboxamide]",9 mL/min/kg,74 µg/mL
"Cc1c(-c2ccc(NC(=O)[C@@H](NC(=O)c3ccnn3C(C)C)C(C3CC3)C3CC3)nc2F)cc(OC(F)F)c[n+]1[O-] [Example 8, N-[(1S)-1-(dicyclopropylmethyl)-2-[[5-[5-(difluoromethoxy)-2-methyl-1-oxido-pyridin-1-ium-3-yl]-6-fluoro-2-pyridyl]amino]-2-oxo-ethyl]-2-isopropyl-pyrazole-3-carboxamide]",8 mL/min/kg,8 µg/mL
"Cc1cc(-c2ccc(NC(=O)[C@@H](NC(=O)c3ccnn3CC3CC(F)(F)C3)C(C3CC3)C3CC3)nc2F)c(C)[n+]([O-])c1 [Example 32, N-[(1S)-1-(dicyclopropylmethyl)-2-[[5-(2,5-dimethyl-1-oxido-pyridin-1-ium-3-yl)-6-fluoro-2-pyridyl]amino]-2-oxo-ethyl]-2-[(3,3-difluorocyclobutyl)methyl]pyrazole-3-carboxamide]",23 mL/min/kg,
"Cc1cc(-c2ccc(NC(=O)[C@@H](NC(=O)c3ccnn3C(C)C)C(C3CC3)C3CC3)nc2Cl)c(C)[n+]([O-])c1 [Example 18, N-[(1S)-1-[[6-chloro-5-(2,5-dimethyl-1-oxido-pyridin-1-ium-3-yl)-2-pyridyl]carbamoyl]-2,2-dicyclopropyl-ethyl]-2-isopropyl-pyrazole-3-carboxamide]",<8 mL/min/kg,26 µg/mL
"CCCn1nccc1C(=O)N[C@H](C(=O)Nc1ccc(-c2cc(C)c[n+]([O-])c2C)c(F)n1)C(C1CC1)C1CC1 [Example 20, N-[(1S)-1-(dicyclopropylmethyl)-2-[[5-(2,5-dimethyl-1-oxido-pyridin-1-ium-3-yl)-6-fluoro-2-pyridyl]amino]-2-oxo-ethyl]-2-propyl-pyrazole-3-carboxamide]",74 mL/min/kg,38 µg/mL
"Cc1c(-c2ccc(NC(=O)[C@@H](NC(=O)c3ccnn3C(C)C)C(C3CC3)C3CC3)nc2F)cc(F)c[n+]1[O-] [Example 2, N-[(1S)-1-(dicyclopropylmethyl)-2-[[6-fluoro-5-(5-fluoro-2-methyl-1-oxido-pyridin-1-ium-3-yl)-2-pyridyl]amino]-2-oxo-ethyl]-2-isopropyl-pyrazole-3-carboxamide]",<8 mL/min/kg,26 µg/mL
"Cc1cc(-c2ccc(NC(=O)[C@@H](NC(=O)c3ccnn3CC(C)C)C(C3CC3)C3CC3)nc2F)c(C)[n+]([O-])c1 [Example 28, N-[(1S)-1-(dicyclopropylmethyl)-2-[[5-(2,5-dimethyl-1-oxido-pyridin-1-ium-3-yl)-6-fluoro-2-pyridyl]amino]-2-oxo-ethyl]-2-isobutyl-pyrazole-3-carboxamide]",>750 mL/min/kg,
"Cc1c(-c2ccc(NC(=O)[C@@H](NC(=O)c3ccnn3C(C)C)C(C3CC3)C3CC3)nc2F)cc(C(F)F)c[n+]1[O-] [Example 49, N-[(1S)-1-(dicyclopropylmethyl)-2-[[5-[5-(difluoromethyl)-2-methyl-1-oxido-pyridin-1-ium-3-yl]-6-fluoro-2-pyridyl]amino]-2-oxo-ethyl]-2-isopropyl-pyrazole-3-carboxamide]",<8 mL/min/kg,18 µg/mL
"Cc1cc(-c2ccc(NC(=O)[C@@H](NC(=O)c3ccnn3CC3CC3)C(C3CC3)C3CC3)nc2F)c(C)[n+]([O-])c1 [Example 29, 2-(cyclopropylmethyl)-N-[(1S)-1-(dicyclopropylmethyl)-2-[[5-(2,5-dimethyl-1-oxido-pyridin-1-ium-3-yl)-6-fluoro-2-pyridyl]amino]-2-oxo-ethyl]pyrazole-3-carboxamide]",8 mL/min/kg,
"Cc1c[n+]([O-])cc(-c2ccc(NC(=O)[C@@H](NC(=O)c3ccnn3C(C)C)C(C3CC3)C3CC3)nc2F)c1C [Example 52, N-[(1S)-1-(dicyclopropylmethyl)-2-[[5-(4,5-dimethyl-1-oxido-pyridin-1-ium-3-yl)-6-fluoro-2-pyridyl]amino]-2-oxo-ethyl]-2-isopropyl-pyrazole-3-carboxamide]",<8 mL/min/kg,4 µg/mL
"Cc1cc(-c2ccc(NC(=O)[C@@H](NC(=O)c3ccnn3C3CC3)C(C3CC3)C3CC3)nc2F)c(C)[n+]([O-])c1 [Example 27, 2-cyclopropyl-N-[(1S)-1-(dicyclopropylmethyl)-2-[[5-(2,5-dimethyl-1-oxido-pyridin-1-ium-3-yl)-6-fluoro-2-pyridyl]amino]-2-oxo-ethyl]pyrazole-3-carboxamide]",<8 mL/min/kg,
"CC(C)n1nccc1C(=O)N[C@H](C(=O)Nc1ccc(-c2c[n+]([O-])ccc2C2CC2)c(F)n1)C(C1CC1)C1CC1 [Example 47, N-[(1S)-2,2-dicyclopropyl-1-[[5-(4-cyclopropyl-1-oxido-pyridin-1-ium-3-yl)-6-fluoro-2-pyridyl]carbamoyl]ethyl]-2-isopropyl-pyrazole-3-carboxamide]",<8 mL/min/kg,
"Cc1cc(-c2ccc(NC(=O)[C@@H](NC(=O)c3cnnn3C(C)C)C(C3CC3)C3CC3)nc2F)c(C)[n+]([O-])c1 [Example 23, N-[(1S)-1-(dicyclopropylmethyl)-2-[[5-(2,5-dimethyl-1-oxido-pyridin-1-ium-3-yl)-6-fluoro-2-pyridyl]amino]-2-oxo-ethyl]-3-isopropyl-triazole-4-carboxamide]",<8 mL/min/kg,
"Cc1cc(-c2ccc(NC(=O)[C@@H](NC(=O)c3ccnn3C(F)F)C(C3CC3)C3CC3)nc2F)c(C)[n+]([O-])c1 [Example 26, N-[(1S)-1-(dicyclopropylmethyl)-2-[[5-(2,5-dimethyl-1-oxido-pyridin-1-ium-3-yl)-6-fluoro-2-pyridyl]amino]-2-oxo-ethyl]-2-(difluoromethyl)pyrazole-3-carboxamide]",<8 mL/min/kg,
"Cc1cc(-c2ccc(NC(=O)[C@@H](NC(=O)c3ccnn3C3CCC3)C(C3CC3)C3CC3)nc2F)c(C)[n+]([O-])c1 [Example 25, 2-cyclobutyl-N-[(1S)-1-(dicyclopropylmethyl)-2-[[5-(2,5-dimethyl-1-oxido-pyridin-1-ium-3-yl)-6-fluoro-2-pyridyl]amino]-2-oxo-ethyl]pyrazole-3-carboxamide]",250 mL/min/kg,
"Cc1cc(-c2ccc(NC(=O)[C@@H](NC(=O)c3ccnn3CC(F)F)C(C3CC3)C3CC3)nc2F)c(C)[n+]([O-])c1 [Example 24, N-[(1S)-1-(dicyclopropylmethyl)-2-[[5-(2,5-dimethyl-1-oxido-pyridin-1-ium-3-yl)-6-fluoro-2-pyridyl]amino]-2-oxo-ethyl]-2-(2,2-difluoroethyl)pyrazole-3-carboxamide]",<8 mL/min/kg,
